Test results from patent US20220257774A1, “AROMATIC AMINE AR AHD BET TARGETING PROTEIN DEGRADATION CHIMERA COMPOUND AND USE” (HINOVA PHARMACEUTICALS INC., priority 2019, published 2022).
Read-outs that look alike come from different tables or passages of the source.

Experiments:
LNCaP/AR cells = test: Inhibition of the proliferation of LNCap/AR cells (CCK-8); type: cell-based; details: read-out: LNCap/AR IC50
Summary of the method: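 Proliferation was read by CCK-8 (OD 450 nm, 1 h) after six days of compound exposure. Cells were seeded at 1000 per well overnight, then dosed in duplicate over nine 3-fold steps with a top final concentration of 10 μM in 0.1% DMSO; IC50 was fitted from inhibition curves.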

22RV1 cells = test: Inhibition of the proliferation of drug-resistant prostate cancer cell 22RV1 (CCK-8); type: cell-based; details: 22RV1 cells (enzalutamide-resistant), same method
Method: (1) Experimental materials and instruments: LNCaP/AR cell line and 22RV1 cell line (provided by Sichuan Kangcheng Biotechnology Co., Ltd.) Fetal bovine serum FBS (Gibco, Cat. No. 10099-141) 0.01M PBS (Biosharp, Cat. No. 162262) RIPM1640 medium (Hyclone, Cat. No. 308090.01) Penicillin-Streptomycin (Hyclone, Cat. No. SV30010) Cell counting kit-8 (Signalway Antibody, Cat. No. CP002) DMSO (Sigma, Cat. No. D5879) Centrifuge Tube, 15 ml (Excell Bio, Cat. No. CS015-0001) Cell Culture Dish, (Excell Bio, Cat. No. CS016-0128) 96-well cell culture plate (Corning, Cat. No. 3599) Microplate reader (Thermo Multiskan MK3 type)
a. Preparation of Buffer Cell culture medium: RIPM1640 medium, 10% FBS, 1% Pen Strep: PBS buffer: PBS powder was dissolved in 2 L of ultrapure water and sterilized. b. Experimental Procedures 1) LNCaP/AR cells were subcultured in cell culture media, and then the cells in good growth condition were seeded in a 96-well plate at 80 μL/well (1000 cells/well), and cultured overnight in a 37° C., 5% CO2 cell incubator. 2) The drug was prepared into a 10 mM stock solution with dimethyl sulfoxide (DMSO). Prior to use, the stock solution was diluted in a ratio of […] with DMSO, and then diluted at a 3-fold gradient to obtain 9 serial concentrations. Then, each concentration of compound was further diluted in a ratio of 1:200 with the culture medium (to ensure that the DMSO concentration in the culture system was 0.1%), and two wells were set for each concentration. 20 μL of the diluted compound solution was added to the well of the cell culture (with a final concentration of 10 μM, 3.3 μM, 1.1 μM . . . ), and then the plate was gently tapped to thoroughly mix. In addition, the experiment included 3 negative control wells only containing cells and 3 blank control wells only containing culture medium (6 wells were each added with DMSO diluted in a ratio of 1:200 with 20 μL of culture medium). c. Result Detection: 1) After culturing for 6 days, 10 μL of CCK-8 was added to each well, and the plate was further incubated for 1 h in a 37° C., 5% CO2 cell incubator. 2) The absorbance (OD value) was measured at 450 nm with a multifunctional microplate reader. 3) The data was analyzed by the Dose-response-inhibition equation in the software GraphPad Prism5, and the IC50 value was obtained. 2. Biological assay of the inhibition on the proliferation of other drug-resistant prostate cancer cells
The same test method was used to determine the inhibitory activity of the compound according to the present invention against drug-resistant prostate cancer cell 22RV1.

[1] = 144 h, LNCaP/AR cells, 6 days culture, CCK-8

IC50 (LNCaP/AR cells; [1]) | IC50 (22RV1 cells; Homo sapiens) | IC50 (LNCaP/AR cells; LNCaP/AR cells, 6 days culture, CCK-8) | IC50 (22RV1 cells) | SMILES | IC50 (LNCaP/AR cells; LNCaP/AR, 144 h)
501 to 2000 nM | 101 to 500 nM |  |  | Cc1ccc(-c2c(C)noc2C)cc1N(CC(C)OC1CCN(c2cc3c(cc2F)C(=O)N(C2CCC(=O)NC2=O)C3=O)CC1)c1ccc(C2(C#N)CC2)cc1 (centres unmarked) [Compound 188] | 
> 2000 nM | 501 to 2000 nM |  |  | Cc1ccc(-c2c(C)noc2C)cc1N(CCC(C)CCNc1cc2c(cc1F)C(=O)N(C1CCC(=O)NC1=O)C2=O)c1ccc(C2(C#N)CC2)cc1 (centres unmarked) [Compound 189, 1-(4-((5-(3,5-dimethylisoxazol-4-yl)-2-methylphenyl)(5-((2-(2,6-dioxopiperidin-3-yl)-6-fluoro-1,3-dioxoisoindolin-5-yl)amino)-3-methylpentanyl)amino)phenyl)cyclopropane-1-carbonitrile] | 
> 2000 nM | 501 to 2000 nM |  |  | Cc1ccc(-c2c(C)noc2C)cc1N(CCCCOc1ccc2c(c1)C(=O)N(C1CCC(=O)NC1=O)C2=O)c1ccc(C2(C#N)CC2)cc1 (centres unmarked) [Compound 108, 1-(4-((5-(3,5-Dimethylisoxazol-4-yl)-2-methylphenyl)(4-((2-(2,6-dioxopiperidin-3-yl)-1,3-dioxoisoindolin-5-yl)oxy)butyl)amino)phenyl)cyclopropanecarbonitrile] | 
> 2000 nM | > 2000 nM |  |  | Cc1ccc(-c2c(C)noc2C)cc1N(CC1CCN(CC2CN(c3ccc4c(c3)C(=O)N(C3CCC(=O)NC3=O)C4=O)C2)CC1)c1ccc(C2(C#N)CC2)cc1 (centres unmarked) [Compound 78, 1-(4-((5-(3,5-dimethylisoxazol-4-yl)-2-methylphenyl)((1-((1-(2-(2,6-dioxopiperidin-3-yl)-1,3-dioxoisoindolin-5-yl)azetidin-3-yl)methyl)piperidin-4-yl)methyl)amino)phenyl)cyclopropane-1-carbonitrile] | 
101 to 500 nM | < 100 nM |  |  | Cc1ccc(-c2c(C)noc2C)cc1N(CCCCNc1ccc2c(c1)C(=O)N(C1CCC(=O)NC1=O)C2=O)c1ccc(C2(C#N)CC2)cc1 (centres unmarked) [Compound 41, 1-(4-((5-(3,5-Dimethylisoxazol-4-yl)-2-methylphenyl)(4-((2-(2,6-dioxopiperidin-3-yl)-1,3-dioxoisoindolin-5-yl)amino)butyl)amino)phenyl)cyclopropane-1-nitrile] | 
 |  | 101 to 500 nM | 501 to 2000 nM | Cc1ccc(-c2c(C)noc2C)cc1N(CC1CCC(Nc2cc3c(cc2F)C(=O)N(C2CCC(=O)NC2=O)C3)CC1)c1ccc(C2(C#N)CC2)cc1 (centres unmarked) [Compound 115, 1-(4-((5-(3,5-Dimethylisoxazol-4-yl)-2-methylphenyl)((((1r,4r)-4-((2-(2,6-dioxopiperidin-3-yl)-6-fluoro-1-oxoisoindolin-5-yl)amino)cyclohexyl)methyl)amino)phenyl)cyclopropanecarbonitrile] | 
101 to 500 nM | 501 to 2000 nM |  |  | Cc1ccc(-c2c(C)noc2C)cc1N(CC1CN(c2cc3c(cc2F)C(=O)N(C2CCC(=O)NC2=O)C3)C1)c1ccc(C2(C#N)CC2)cc1 (centres unmarked) [Compound 156] | 
> 2000 nM |  |  |  | CC(=O)O[C@@H]1C[C@@H](C(=O)N[C@@H](C)c2ccc(-c3scnc3C)cc2)N(C(=O)[C@@H](NC(=O)COCCCCCCCN(c2ccc(-n3ccnc3)cc2)c2cc(-c3c(C)noc3C)ccc2C)C(C)(C)C)C1 [Compound 7] | 

More lines, now with the values behind:

SMILES | IC50 (LNCaP/AR cells; [1]) | IC50 (22RV1 cells; Homo sapiens) | IC50 (LNCaP/AR cells; LNCaP/AR cells, 6 days culture, CCK-8) | IC50 (22RV1 cells) | IC50 (LNCaP/AR cells; LNCaP/AR, 144 h)
Cc1ccc(-c2c(C)noc2C)cc1N(CCCNc1cc2c(cc1F)CN(C1CCC(=O)NC1=O)C2=O)c1ccc(C2(C#N)CC2)cc1 (centres unmarked) [Compound 175, 1-(4-((5-(3,5-dimethylisoxazol-4-yl)-2-methylphenyl)(3-((2-(2,6-dioxopiperidin-3-yl)-6-fluoro-3-oxoisoindolin-5-yl)amino)propyl)amino)phenyl)cyclopropane-1-nitrile] | 501 to 2000 nM | > 2000 nM |  |  | 
Cc1ccc(-c2c(C)noc2C)cc1N(CCCC1CCN(c2ccc3c(c2)C(=O)N(C2CCC(=O)NC2=O)C3)CC1)c1ccc(C2(C#N)CC2)cc1 (centres unmarked) [Compound 31, 1-(4-((5-(3,5-Dimethylisoxazol-4-yl)-2-methylphenyl)(3-(1-(2-(2,6-dioxopiperidin-3-yl)-3-oxoisoindolin-5-yl)piperidin-4-yl)propyl)amino)phenyl)cyclopropane-1-nitrile] | 101 to 500 nM | < 100 nM |  |  | 
Cc1ccc(-c2c(C)noc2C)cc1N(CC1CCC(Nc2cc3c(cc2F)C(=O)N(C2CCC(=O)NC2=O)C3=O)CC1)c1ccc(C2(C#N)CC2)cc1 (centres unmarked) [Compound 161, 1-(4-((5-(3,5-dimethylisoxazol-4-yl)-2-methylphenyl)(((1s,4s)-4-((2-(2,6-dioxopiperidin-3-yl)-6-fluoro-1,3-dicarbonylisoindolin-5-yl)amino)cyclohexyl)methyl)amino)phenyl) phenylcyclopropanecarbonitrile] | > 2000 nM | > 2000 nM |  |  | 
Cc1ccc(-c2c(C)noc2C)cc1N(C[C@H]1CC[C@H](CNc2cc3c(cc2F)CN(C2CCC(=O)NC2=O)C3=O)CC1)c1ccc(C#N)c(Cl)c1 (some centres unmarked) [Compound 136] |  | 101 to 500 nM |  |  | 501 to 2000 nM
Cc1ccc(-c2c(C)noc2C)cc1N(CC1CC2(C1)CN(c1cc3c(cc1F)C(=O)N(C1CCC(=O)NC1=O)C3)C2)c1ccc(C2(C#N)CC2)cc1 (centres unmarked) [Compound 125, 1-(4-((5-(3,5-dimethylisoxazol-4-yl)-2-methylphenyl)((2-(2-(2-,2,6-dioxopiperidin-3-yl)-6-fluoro-1-oxoisoindolin-5-yl)-2-azaspiro[3.3]heptan-6-yl)methyl)amino)phenyl)cyclopropane-1-carbonitrile] | 501 to 2000 nM | 501 to 2000 nM |  |  | 
Cc1ccc(-c2c(C)noc2C)cc1N(CCCCNc1cc2c(cc1F)C(=O)N(C1CCC(=O)NC1=O)C2=O)c1ccc(C#N)c(Cl)c1 (centres unmarked) [Compound 164, 2-Chloro-4-((5-(3,5-dimethylisoxazol-4-yl)-2-methylphenyl)(4-((2-(2,6-dioxopiperidin-3)-6-fluoro-1,3-dioxyisoindolin-5-yl)amino)butyl)amino)benzonitrile] |  | > 2000 nM |  |  | 501 to 2000 nM
Cc1ccc(-c2c(C)noc2C)cc1N(CCOC1(C)CN(c2ccc3c(c2)C(=O)N(C2CCC(=O)NC2=O)C3=O)C1)c1ccc(C2(C#N)CC2)cc1 (centres unmarked) [Compound 110, 1-(4-((5-(3,5-Dimethylisoxazol-4-yl)-2-methylphenyl)(2-((1-(2-(2,6-dioxopiperidin-3-yl)-1,3-dioxoisoindolin-5-yl)-3-methylazetidin-3-yl)oxy)ethyl)amino)phenyl)cyclopropanecarbonitrile] | > 2000 nM | > 2000 nM |  |  | 
Cc1ccc(-c2c(C)noc2C)cc1N(CCCCNc1cc2c(cc1F)C(=O)N(C1CCC(=O)NC1=O)C2)c1ccc(C#N)c(Cl)c1 (centres unmarked) [Compound 167, 2-Chloro-4-((5-(3,5-dimethylisoxazol-4-yl)-2-methylphenyl)(4-((2-(2,6-dioxopiperidin-3)-6-fluoro-1-isoindolinone-5-yl)amino)butyl)amino)benzonitrile] |  | > 2000 nM |  |  | 501 to 2000 nM
Cc1ccc(-c2c(C)noc2C)cc1N(CCCCCOCC(=O)N[C@H](C(=O)N1C[C@H](O)C[C@H]1C(=O)N[C@@H](C)c1ccc(-c2scnc2C)cc1)C(C)(C)C)c1ccc(-n2ccnc2C)cc1 [Compound 97, (2S,4R)-1-((S)-2-(2-((5-((5-(3,5-dimethylisoxazol-4-yl)-2-methylphenyl)(4-(2-methyl-1H-imidazol-1-yl)phenyl)amino)pentyl)oxy)acetylamino)-3,3-dimethylbutyryl)-4-hydroxy-N—((S)-1-(4-(4-methylthiazol-5-yl)phenyl)ethyl)-pyrrolidinyl-2-formamide] | 101 to 500 nM |  |  |  | 
